The text below walks through data of patent US9351955B2, “Compounds and pharmaceutical compositions thereof for the treatment of cystic fibrosis” (Galapagos NV, priority 2013, dated 2016).

Holding throughout (assay type): cell-based
Assay [1] concerns the target T1, CFTR ΔF508 mutant (Homo sapiens, UniProt P13569, DEL508-508).
T1 construct: expressed in transfected cells; host or cells: CFBE41o- (adenoviral transduction)
The assay is described as follows: YFP-halide influx assay for the CFTR-ΔF508 mutation (96 well, CFBE41o- cells). As to conditions: compounds of the invention, 96 well, forskolin 10.67 μM, read-out: EC50 measured by YFP-halide influx assay for the CFTR-ΔF508. The procedure, abridged: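 CFBE41o- cells were adenovirally transduced with CFTR ΔF508 and the halide-sensitive YFP H148Q/I152L. They were then corrected either at 27 °C for 24 h or with a CFTR modulator for 24 h at 37 °C. After iodide injection, YFP quenching over 7 s was expressed as 1−F/F0, and EC50 was derived from the concentration–response plot.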

The target in assay [2] is T1, CFTR ΔF508 mutant. The assay can be described thus: YFP-halide influx assay for the CFTR-ΔF508 mutation (384 well, CFBE41o- cells, FDSS/μCell). Particulars: forskolin 10.67 μM, fluorescence after 36 seconds, read-out: EC50 measured by YFP-halide influx assay for the CFTR-ΔF508. The procedure, abridged: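 CFBE41o- cells were adenovirally transduced with ΔF508 CFTR and the YFP H148Q/I152L reporter. Cells were then held 24 h at 27 °C or treated 24 h at 37 °C with a CFTR modulator. Iodide-induced quench was recorded for 2 min, and EC50 was derived from 1−F/F0 at 36 s against compound concentration.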

Assay [3] addresses T2, CFTR G551D mutant (Homo sapiens, UniProt P13569, G551D).
T2 construct: expressed in transfected cells; host or cells: HEK293 (reverse transfection with plasmids)
The assay is described as follows: YFP-halide influx assay for the CFTR-G551D mutation (HEK293 cells). As to conditions: HEK293 cells expressing CFTR G551D and YFP reporter; forskolin 10.67 μM; read-out: EC50 measured by YFP-halide influx assay for the CFTR-G551D. The procedure, abridged: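 HEK293 cells reverse-transfected with CFTR G551D and halide-sensitive YFP, expressed 24 h at 37 °C. Iodide-induced fluorescence quench recorded for 7 s after I^− injection; response as 1−F/F0, EC50 from concentration plot.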

For assay [4], the target named is T3, CFTR-G178R (Homo sapiens, UniProt P13569, G178R).
T3 construct: expressed in transfected cells
T3 sequence (P13569 whole entry G178R): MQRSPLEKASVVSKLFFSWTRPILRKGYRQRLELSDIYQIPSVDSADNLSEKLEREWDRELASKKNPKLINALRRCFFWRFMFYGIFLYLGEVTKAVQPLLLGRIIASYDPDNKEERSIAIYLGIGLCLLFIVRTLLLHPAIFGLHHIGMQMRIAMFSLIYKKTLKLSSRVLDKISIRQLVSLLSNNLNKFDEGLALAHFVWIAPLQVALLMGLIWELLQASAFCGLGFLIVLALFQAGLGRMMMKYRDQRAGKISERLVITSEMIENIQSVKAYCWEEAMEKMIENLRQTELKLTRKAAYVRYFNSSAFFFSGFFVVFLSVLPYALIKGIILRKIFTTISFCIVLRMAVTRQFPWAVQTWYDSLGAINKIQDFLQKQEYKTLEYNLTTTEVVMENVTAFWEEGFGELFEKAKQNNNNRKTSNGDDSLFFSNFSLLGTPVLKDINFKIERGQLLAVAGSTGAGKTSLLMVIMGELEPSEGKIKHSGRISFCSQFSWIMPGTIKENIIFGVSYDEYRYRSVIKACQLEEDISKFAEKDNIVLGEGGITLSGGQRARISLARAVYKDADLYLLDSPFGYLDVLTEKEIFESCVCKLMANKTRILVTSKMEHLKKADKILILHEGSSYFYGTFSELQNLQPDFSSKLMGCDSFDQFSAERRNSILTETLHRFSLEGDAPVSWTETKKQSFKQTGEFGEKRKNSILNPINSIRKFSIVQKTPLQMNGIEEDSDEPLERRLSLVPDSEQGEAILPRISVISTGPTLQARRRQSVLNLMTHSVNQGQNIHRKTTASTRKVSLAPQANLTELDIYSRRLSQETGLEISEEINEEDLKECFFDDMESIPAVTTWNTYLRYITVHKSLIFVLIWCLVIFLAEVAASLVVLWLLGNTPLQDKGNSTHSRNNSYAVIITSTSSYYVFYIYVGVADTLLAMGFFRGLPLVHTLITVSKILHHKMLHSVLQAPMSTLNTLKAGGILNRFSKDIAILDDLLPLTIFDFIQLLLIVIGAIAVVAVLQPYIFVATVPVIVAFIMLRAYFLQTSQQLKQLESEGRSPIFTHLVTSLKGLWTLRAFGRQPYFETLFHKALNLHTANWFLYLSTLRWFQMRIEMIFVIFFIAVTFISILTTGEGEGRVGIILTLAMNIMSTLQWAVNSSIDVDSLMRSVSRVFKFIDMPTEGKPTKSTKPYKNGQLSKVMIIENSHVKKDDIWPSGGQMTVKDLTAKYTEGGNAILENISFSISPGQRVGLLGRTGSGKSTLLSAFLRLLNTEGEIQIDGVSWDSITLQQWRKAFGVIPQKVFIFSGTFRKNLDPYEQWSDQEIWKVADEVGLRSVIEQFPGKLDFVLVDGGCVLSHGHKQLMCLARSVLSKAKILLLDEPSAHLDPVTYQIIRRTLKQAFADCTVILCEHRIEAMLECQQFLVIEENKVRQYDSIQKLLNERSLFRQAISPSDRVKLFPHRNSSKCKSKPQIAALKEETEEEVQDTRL
The assay is described as follows: YFP-halide influx assay for the CFTR-G178R. As to conditions: read-out: EC50 measured by YFP-halide influx assay for the CFTR-G178R. An excerpt:
(§1) The YFP halide influx assay measures the functionality of the cystic fibrosis Transmembrane Conductance regulator (CFTR) channels. The assay is used to evaluate the capacity of compounds to increase the channel opening of existing mutant CFTR channels in the membrane. It makes use of the observation that the yellow fluorescent protein (YFP) variant YFP H148Q, I152L, F47L has its fluorescence substantially quenched by halide ions like Cl^− and I^−. (Galietta et al., 2001)
(§2) For this purpose, HEK293-cells are seeded in 96 well plates. During seeding, the cells are reverse-transfected with plasmid vectors that direct the expression of the CFTR G551D mutant and of the YFP reporter. Cells are incubated at 37° C., 5% CO2 for 24 hours so as to allow for sufficient expression of the CFTR protein.
(§3) The I^−-induced quenching of fluorescence is recorded immediately after injection of I^− for 7 seconds. The capacity of a compound to increase the channel opening is directly correlated with the decrease in fluorescence, and is expressed as (1−(fluorescence after 7 seconds (F)/fluorescence before injection (F0))) and an EC50 can be derived from a (1−F/F0) vs compound concentration plot.
(§4) Similar YHA assays were developed for other channel gating defective or channel conductance defective CFTR mutants to determine effect of compound on channel activity. Examples of mutants are G178R, G1349D, S549N, R117H, R334W. This assay is also used for additional class I CFTR mutants, including G542X, W1282X; class II mutants including N1303K, and for class III mutants including S1251N; or wild-type CFTR.

Assay [5] deals with T4, CFTR-G1349D (Homo sapiens, UniProt P13569, G1349D).
T4 construct: expressed in transfected cells
T4 sequence (P13569 whole entry G1349D): as the sequence (P13569 whole entry G178R) above, with R178G, G1349D counted along it
The assay is described as follows: YFP-halide influx assay for the CFTR-G1349D. As to conditions: CFTR-G1349D mutant; read-out: EC50 measured by YFP-halide influx assay for the CFTR-G1349D.
Description: as §1, §2, §3, §4

Assay [6] deals with T5, CFTR-S549N (Homo sapiens, UniProt P13569, S549N).
T5 construct: expressed in transfected cells
T5 sequence (P13569 whole entry S549N): as the sequence (P13569 whole entry G178R) above, with R178G, S549N counted along it
The assay can be described thus: YFP-halide influx assay for the CFTR-S549N. As to conditions: CFTR-S549N mutant; read-out: EC50 measured by YFP-halide influx assay for the CFTR-S549N.
Description: as §1, §2, §3, §4

Assay [7] concerns the target T6, CFTR-R117H (Homo sapiens, UniProt P13569, R117H).
T6 construct: expressed in transfected cells
The assay can be described thus: YFP-halide influx assay for the CFTR-R117H. Particulars: CFTR-R117H mutant; read-out: EC50 measured by YFP-halide influx assay for the CFTR-R117H.
Description: as §1, §2, §3, §4

T1 sequence (P13569 with tags, fused parts or gaps DEL508-508): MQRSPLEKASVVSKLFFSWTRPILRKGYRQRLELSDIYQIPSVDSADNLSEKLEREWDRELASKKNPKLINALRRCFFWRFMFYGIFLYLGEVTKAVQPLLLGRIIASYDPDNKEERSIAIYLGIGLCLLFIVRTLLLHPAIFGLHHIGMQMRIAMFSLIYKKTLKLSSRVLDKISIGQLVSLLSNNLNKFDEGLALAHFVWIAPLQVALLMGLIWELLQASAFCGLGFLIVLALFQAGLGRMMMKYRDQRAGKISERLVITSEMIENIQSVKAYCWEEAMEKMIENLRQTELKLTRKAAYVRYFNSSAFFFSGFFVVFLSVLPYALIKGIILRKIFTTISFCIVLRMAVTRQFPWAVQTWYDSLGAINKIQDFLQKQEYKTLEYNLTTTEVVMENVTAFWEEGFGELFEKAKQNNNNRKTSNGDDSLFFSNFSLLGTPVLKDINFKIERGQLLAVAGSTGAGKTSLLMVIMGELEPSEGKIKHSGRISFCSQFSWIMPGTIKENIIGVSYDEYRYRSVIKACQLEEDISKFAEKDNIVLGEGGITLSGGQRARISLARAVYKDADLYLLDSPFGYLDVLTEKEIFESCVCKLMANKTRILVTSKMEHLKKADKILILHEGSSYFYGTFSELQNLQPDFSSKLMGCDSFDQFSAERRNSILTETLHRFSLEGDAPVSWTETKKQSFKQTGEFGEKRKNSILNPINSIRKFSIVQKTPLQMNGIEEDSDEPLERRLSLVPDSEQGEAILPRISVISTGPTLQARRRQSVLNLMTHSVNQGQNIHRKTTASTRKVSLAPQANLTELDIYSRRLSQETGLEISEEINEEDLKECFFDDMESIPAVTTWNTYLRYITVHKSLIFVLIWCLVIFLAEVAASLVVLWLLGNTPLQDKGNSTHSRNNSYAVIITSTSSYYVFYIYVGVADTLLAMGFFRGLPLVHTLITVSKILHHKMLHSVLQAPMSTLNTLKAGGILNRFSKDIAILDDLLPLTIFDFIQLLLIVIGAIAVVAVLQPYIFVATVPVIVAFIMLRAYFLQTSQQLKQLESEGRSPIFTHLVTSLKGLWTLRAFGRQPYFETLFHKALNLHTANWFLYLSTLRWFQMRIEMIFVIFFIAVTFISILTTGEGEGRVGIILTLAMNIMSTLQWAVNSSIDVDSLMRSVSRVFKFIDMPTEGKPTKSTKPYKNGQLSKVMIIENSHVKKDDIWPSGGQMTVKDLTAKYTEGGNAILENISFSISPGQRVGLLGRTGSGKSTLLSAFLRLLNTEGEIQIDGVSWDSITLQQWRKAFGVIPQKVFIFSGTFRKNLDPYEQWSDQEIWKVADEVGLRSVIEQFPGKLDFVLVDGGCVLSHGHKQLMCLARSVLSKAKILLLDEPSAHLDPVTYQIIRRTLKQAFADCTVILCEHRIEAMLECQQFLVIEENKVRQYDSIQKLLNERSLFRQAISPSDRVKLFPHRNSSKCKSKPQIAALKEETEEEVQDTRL
T6 sequence (P13569 whole entry R117H): as the sequence (P13569 whole entry G178R) above, with R117H, R178G counted along it
T2 sequence (P13569 whole entry G551D): as the sequence (P13569 whole entry G178R) above, with R178G, G551D counted along it

As to `CC1(C)Cc2c(sc(NC(=O)c3n[nH]cc3Br)c2C(N)=O)C(C)(C)O1` [Compound 33, 4-bromo-N-(3-carbamoyl-5,5,7,7-tetramethyl-5,7-dihydro-4H-thieno[2,3-c]pyran-2-yl)-1H-pyrazole-3-carboxamide], the half-maximal effective concentration (EC50) (commonly the concentration that produces a half-maximal response) stood at 4 nM in assay [1]; 6.93 nM in assay [2]; 92 nM in assay [3]; 88.6 nM in assay [4]; 116 nM in assay [5]; 164 nM in assay [6]. Besides, the EC50 in assay [7] turned out to be 165 nM.

On to `CC1(C)Cc2c(sc(NC(=O)c3cc(C4CC4)[nH]n3)c2C(N)=O)C(C)(C)O1` [Compound 13, N-(3-carbamoyl-5,5,7,7-tetramethyl-5,7-dihydro-4H-thieno[2,3-c]pyran-2-yl)-5-cyclopropyl-1H-pyrazole-3-carboxamide], for which the EC50 in assay [1] turned out to be 17.9 nM; in assay [2], 6.13 nM; in assay [3], 198 nM; in assay [4], 98.8 nM; in assay [5], 75.3 nM; in assay [6], 158 nM. Also, the concentration for a half-maximal effect (EC50) in assay [7] turned out to be 177 nM.

On to `COCc1cc(C(=O)Nc2sc3c(c2C(N)=O)CC(C)(C)OC3(C)C)n[nH]1` [Compound 42, N-(3-carbamoyl-5,5,7,7-tetramethyl-5,7-dihydro-4H-thieno[2,3-c]pyran-2-yl)-5-(methoxymethyl)-1H-pyrazole-3-carboxamide], for which the 50% effective concentration (EC50) amounted to 12.2 nM in assay [1]; 15.3 nM in assay [2]; 156 nM in assay [4]; 678 nM in assay [5]; 508 nM in assay [6]; 193 nM in assay [7].

Turning to `CC1(C)Cc2c(sc(NC(=O)C(O)C(C)(C)C)c2C(N)=O)C(C)(C)O1` (centres unmarked) [Compound 38, 2-(2-hydroxy-3,3-dimethylbutanamido)-5,5,7,7-tetramethyl-5,7-dihydro-4H-thieno[2,3-c]pyran-3-carboxamide], the 50% effective concentration (EC50) was 5 nM in assay [1]; 5.99 nM in assay [2]; 96.8 nM in assay [4]; 517 nM in assay [5]; 690 nM in assay [6]; 64.3 nM in assay [7].

`CC(C)c1cc(C(=O)Nc2sc3c(c2C(N)=O)CC(C)(C)OC3(C)C)n[nH]1` [Compound 14, N-(3-carbamoyl-5,5,7,7-tetramethyl-5,7-dihydro-4H-thieno[2,3-c]pyran-2-yl)-5-isopropyl-1H-pyrazole-3-carboxamide]: the EC50 in assay [1] was 32.2 nM; in assay [2] it was 9.44 nM; in assay [3] it was 377 nM; in assay [4], 169 nM; in assay [5] it was 371 nM; in assay [6], 253 nM. For the same compound, the EC50 in assay [7] turned out to be 207 nM.

For the compound `CC1(C)Cc2c(sc(NC(=O)c3cc(C(F)(F)F)[nH]n3)c2C(N)=O)C(C)(C)O1` [Compound 15, N-(3-carbamoyl-5,5,7,7-tetramethyl-5,7-dihydro-4H-thieno[2,3-c]pyran-2-yl)-5-(trifluoromethyl)-1H-pyrazole-3-carboxamide], the EC50 in assay [1] is 7.56 nM; in assay [2] it was 2.72 nM; in assay [3], 77.5 nM; in assay [4] it was 87.5 nM; in assay [5] it was 75.3 nM; in assay [6], 208 nM. Further, the 50% effective concentration (EC50) in assay [7] was determined as 158 nM.

Turning to `CC1(C)Cc2c(sc(NC(=O)C3(CO)CCC3)c2C(N)=O)C(C)(C)O1` [Compound 40, 2-(1-(hydroxymethyl)cyclobutanecarboxamido)-5,5,7,7-tetramethyl-5,7-dihydro-4H-thieno[2,3-c]pyran-3-carboxamide], the EC50 in assay [1] was 32 nM; in assay [2] it was 35.6 nM; in assay [4], greater than 3330 nM; in assay [5] it was 1910 nM; in assay [6], 1930 nM; in assay [7], 2900 nM.

Turning to `Cc1[nH]nc(C(=O)Nc2sc3c(c2C(N)=O)CC(C)(C)OC3(C)C)c1Cl` [Compound 34, N-(3-carbamoyl-5,5,7,7-tetramethyl-5,7-dihydro-4H-thieno[2,3-c]pyran-2-yl)-4-chloro-5-methyl-1H-pyrazole-3-carboxamide], the EC50 in assay [1] is 10 nM; in assay [2], 10.1 nM; in assay [3], 270 nM; in assay [4] it was 42.2 nM; in assay [5], 47.4 nM; in assay [6], 444 nM. The half-maximal effective concentration (EC50) in assay [7] amounted to 301 nM.

On to `CC(C)C(O)C(=O)Nc1sc2c(c1C(N)=O)CC(C)(C)OC2(C)C` (centres unmarked) [Compound 39, 2-(2-hydroxy-3-methylbutanamido)-5,5,7,7-tetramethyl-5,7-dihydro-4H-thieno[2,3-c]pyran-3-carboxamide], for which the half-maximal effective concentration (EC50) in assay [1] turned out to be 6 nM; in assay [2], 4.51 nM; in assay [4] it was 1360 nM; in assay [5], 1340 nM; in assay [6], 1100 nM; in assay [7], 145 nM.
